Measured values as given in patent publication US8492106B2, “Identification methods for ergothioneine transporter modulators and therapeutic uses thereof” (Universitat Zu Koln, priority 2004, dated 2013).
Where two headings read alike, the source gives them in different places.

Assays:
ETTh = target: T1, ETTh (Homo sapiens, UniProt Q9H015); assay: Substrate uptake into 293-FIT-ETTh cells expressing ETTh (LC-MS/MS and radiotracer assays); type: cell-based; settings: for Km: read-out: Km (affinity of ETTh)
T1 construct: expressed in transfected cells
T1 sequence (Q9H015 1-551): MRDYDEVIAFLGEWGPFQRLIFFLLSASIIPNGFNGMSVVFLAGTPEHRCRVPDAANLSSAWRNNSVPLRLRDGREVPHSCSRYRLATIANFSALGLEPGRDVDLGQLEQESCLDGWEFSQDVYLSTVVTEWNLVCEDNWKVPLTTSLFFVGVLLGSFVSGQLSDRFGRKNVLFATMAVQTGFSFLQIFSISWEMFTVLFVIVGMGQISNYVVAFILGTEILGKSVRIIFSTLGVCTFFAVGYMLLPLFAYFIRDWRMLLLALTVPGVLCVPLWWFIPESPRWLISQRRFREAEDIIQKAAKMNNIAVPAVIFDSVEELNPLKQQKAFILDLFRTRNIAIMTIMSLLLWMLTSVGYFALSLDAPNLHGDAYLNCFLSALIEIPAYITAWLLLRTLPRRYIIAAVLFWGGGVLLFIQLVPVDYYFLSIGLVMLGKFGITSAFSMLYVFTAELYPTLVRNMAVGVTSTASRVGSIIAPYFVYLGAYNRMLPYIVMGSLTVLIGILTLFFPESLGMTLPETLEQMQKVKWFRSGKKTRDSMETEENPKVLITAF
Protocol: Substrate concentration was 10 μmol/l for all LC-MS/MS assays (gamma-butyryl betaine, N-methyl proline (alias hygric acid), hydroxyproline betaine (alias betonicine), proline betaine (alias stachydrine), and ergothioneine) and 0.1 μmol/l for all radiotracer assays.
(§1) FIG. 3: Determination of Km and Vmax of ergiothioneine transport via ETTh. 293-FIT-ETTh (filled circles) or 293-FIT-NT (open circles) cell monolayers were incubated for 1 min at 37° C. with various ET concentrations in KRH buffer. After thorough washing, cells were lysed with 4 mmol/l HClO4. Lysates were analysed for ET content by LC-MS/MS. Each circle represents a single dish. Uptake into control cells was modeled with a straight line through the origin.
The cDNA of ETTh (EMBL/GenBank accession number Y09881) was inserted into the eukaryotic expression vector pcDNA5/FRT/TO (Invitrogen) to yield pcDNA5/FRT/TO/ETTh. This plasmid was cotransfected together with plasmid pOG44 by lipofection with Tfx-50 (Promega) into Flp-In T-REx 293 cells (Invitrogen; referred to as 293-FIT-NT in the remainder). After antibiotic selection with hygromycin B and blasticidin S, the surviving cells, used as a pool and designated as 293-FIT-ETTh, were assayed for ETT transcripts by Northern analysis.
The cell lines 293-FIT-ETTh and 293-FIT-NT (original cell line, not transfected), grown as monolayers in 6 cm diameter polystyrol dishes and induced with 1 μg/ml doxycycline for 20 h, were incubated for 1 min at 37° C. with 2 ml of a mixture of human plasma (50%) and KRH buffer (50%). KRH buffer (Krebs-Ringer-Henseleit) contains 5.6 mM (+)-Glucose, 125 mM NaCl, 4.8 mM KCl, 1.2 mM KH2PO4, 1.2 mM CaCl2, 1.2 mM MgSO4, and 25 mM HEPES-NaOH pH 7.4. The dishes were rinsed 4 times with 3 ml ice-cold KRH and subsequently incubated with 1 ml of 4 mmol/l HClO4 to release the cell contents. 15 μl of lysate were analyzed by LC-MS (ESI, positive mode) using a Thermo Finnigan TSQ Quantum triple quad mass spectrometer equipped with a Waters Atlantis HILIC silica column (length 100 mm, diameter 3 mm, particle size 5 μm). The solvent for isocratic chromatography (flow rate 250 μl/min) was made of methanol (70%) and 0.1% formic acid (30%). Data sets were compared by LC-MS Difference Shading software (see separate patent application).
A series of compounds structurally related to either stachydrine or carnitine, the key substrate of the related OCTN2 transporter was tested, for transport by ETTh. […] LC-MS/MS determines total cellular content of a particular analyte.

[1] = in vivo
[2] = Guinea Pig, blood; cited from earlier work
[3] = Dog, blood; cited from earlier work
[4] = Ox, blood; cited from earlier work
[5] = Sheep, blood; cited from earlier work
[6] = cited from earlier work
[7] = Cat, blood; cited from earlier work
[8] = Rat, blood; cited from earlier work
[9] = Pig, blood; cited from earlier work
293-FIT-NT cells = assay: ET uptake into control 293-FIT-NT cells (no ETT expression); type: cell-based, human
Protocol: as §1

[10] = Man, blood; cited from earlier work
[11] = Fowl, blood; cited from earlier work
[12] = Accumulation of ergothioneine in the lens of the eye
[13] = target: T2, carnitine transporter OCTN2 from rat (Rattus norvegicus, UniProt O70594); assay: ET transport by carnitine transporter OCTN2; type: cell-based
T2 sequence (O70594 1-557): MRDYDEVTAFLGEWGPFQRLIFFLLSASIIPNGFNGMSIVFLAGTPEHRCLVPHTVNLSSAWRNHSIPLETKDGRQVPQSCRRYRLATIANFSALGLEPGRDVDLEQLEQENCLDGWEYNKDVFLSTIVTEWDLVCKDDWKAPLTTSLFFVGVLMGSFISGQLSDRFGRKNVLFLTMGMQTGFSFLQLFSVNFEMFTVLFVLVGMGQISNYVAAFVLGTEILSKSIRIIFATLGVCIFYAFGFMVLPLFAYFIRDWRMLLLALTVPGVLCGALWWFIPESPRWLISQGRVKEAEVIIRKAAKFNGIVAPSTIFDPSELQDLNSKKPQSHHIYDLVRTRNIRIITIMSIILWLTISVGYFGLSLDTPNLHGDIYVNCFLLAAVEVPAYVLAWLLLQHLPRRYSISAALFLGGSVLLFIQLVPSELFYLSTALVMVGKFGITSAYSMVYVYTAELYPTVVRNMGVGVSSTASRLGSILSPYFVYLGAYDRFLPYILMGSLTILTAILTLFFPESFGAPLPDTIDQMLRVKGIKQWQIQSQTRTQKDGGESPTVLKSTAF
Excerpt: If the substrate concentration is much smaller than the affinity of the transporter (=Km), then the clearance is directly proportional to the transport efficiency, defined, by analogy to catalytic efficiency for enzymes, as kcat/Km, where kcat is the turnover number of an individual transporter molecule (note that Vmax=kcat*Etotal, where Etotal is the number of transporter molecules).

[14] = Rabbit, blood; cited from earlier work
[15] = LC-MS/MS assay, substrate 10 μmol/l, 1 min at 37° C.
[16] = 293-FIT-ETTh cells, 1 min at 37° C., KRH buffer, LC-MS/MS

## C[N+]1(C)C[C@@H](O)C[C@@H]1C(=O)[O-] [hydroxyproline betaine]
ETTh; [15]
  transport by ETTh (in words): good substrates

## C[N+]1(C)CCC[C@H]1C(=O)[O-] [stachydrine]
[1]
  plasma levels: about 10 μmol/l
ETTh; [16]
  Km: 300 µM
ETTh; [15]
  transport by ETTh (in words): accumulated
ETTh; LC-MS/MS assay, substrate 10 μmol/l, 1 min at 37° C., listed as proline betaine
  transport by ETTh (in words): good substrates

## C[N+](C)(C)[C@@H](Cc1c[nH]c(=S)[nH]1)C(=O)[O-] [ergothioneine, 2-mercaptohistidine trimethylbetaine]
[2]
  Ergothioneine concentration: 1-4 mg/100 ml blood
[3]
  Ergothioneine concentration: 3-6 mg/100 ml blood
[4]
  Ergothioneine concentration: 0.5-2 mg/100 ml blood
[5]
  Ergothioneine concentration: 2-6 mg/100 ml blood
[6]
  concentration in human and mammalian tissue (estimated): 1000 to 2000 µM
[7]
  Ergothioneine concentration: 0.5-2 mg/100 ml blood
[8]
  Ergothioneine concentration: 1-6 mg/100 ml blood
[9]
  Ergothioneine concentration: 3-27 mg/100 ml blood
293-FIT-NT cells; 293-FIT-NT control cells, 1 min at 37° C., KRH buffer
  slope d of uptake into control cells: 0.32 μl/min/mg protein
293-FIT-NT cells; without expression of ETT
  uptake into cells without expression of ETT (in words): virtually no uptake
ETTh; 293-FIT-ETTh cells
  true clearance (Vmax divided by Km): 190 μl/min/mg protein
ETTh; [16]
  Vmax: 4.2 nmol/min/mg protein
  Km: 22 µM
ETTh; [15]
  transport by ETTh (in words): extremely high transport activity
ETTh; transport efficiency, ET versus stachydrine
  ETTh transports ET better than stachydrine: 10 fold
[10]
  Ergothioneine concentration: 1-4 mg/100 ml blood
[11]
  Ergothioneine concentration: 2-10 mg/100 ml blood
[12]
  accumulation in the lens of the eye (in words): significant accumulation
[13]
  acceptance as substrate by OCTN2: did not accept ET as a substrate at all
[14]
  Ergothioneine concentration: 1-10 mg/100 ml blood

## CC[N+](CC)(CC)CC [TEA, tetraethyl ammonium]
ETTh; radiotracer assay, substrate 0.1 μmol/l
  transport by ETTh (in words): negligible
